In patent publication US5849743A, “Quinoxalines and drugs prepared therefrom” (BASF Aktiengesellschaft, priority 1997, dated 1998):

Biological target: AMPA receptors
Experiment: Binding of 3H-AMPA to rat cerebral membrane material
Conditions: displacement of 3H-AMPA, membrane material from rat cerebra, incubated on ice for 60 minutes
Procedure: The pharmacological activity of the compounds I according to the invention was investigated on isolated membrane material from rat brains. For this purpose, the membrane material was incubated in the presence of the substances according to the invention with the radiolabeled substances ^3 H-2-amino-3-hydroxy-5-methyl-4-isoxazolepropionic acid (^3 H-AMPA), ^3 H-5,7-dichlorokynurenic acid or ^3 H-kainate. During this the said radioligands bind in each case to the glutamate receptors specific for them, ie. to AMPA receptors, (^3 H-5,7-dichlorokynurenic acid-binding) NMDA receptors and kainate receptors respectively. After the incubation, the membranes with the receptor-bound radioligands were separated from the free radioligands, and the radioactivity associated with the membranes as measured by liquid scintillation counting. The concentration of receptor-bound ligands, and the extent of displacement of a given radioligand by particular concentrations of the compounds I according to the invention, can be determined from the radioactivity of the membranes. […]

| Ki | Compound |
| --- | --- |
| < 10 µM | O=C(NCc1ccn(-c2cc3[nH]c(=O)c(=O)[nH]c3cc2[N+](=O)[O-])c1)c1ccncc1 [Example 3, acetate] |
| < 10 µM | O=C(O)Cn1c(=O)c(=O)[nH]c2cc([N+](=O)[O-])c(-n3ccc(CN4CCCCC4)c3)cc21 [Example 14, 1-Carboxymethyl-6-nitro-7-(3-((1-piperidinyl)methyl)-1-pyrrolyl)quinoxaline-2,3(1H,4H)-dione] |
